Test results reported in patent US9458181B2, “Cathepsin cysteine protease inhibitors” (Merck Sharp & Dohme Corp., priority 2013, dated 2016).

What was measured:
human cathepsin F = biological target: T1, human cathepsin F (Homo sapiens, UniProt Q9UBX1); assay: Cathepsin F assay (hCat F); assay type: biochemical; details: human cathepsin F 10 nM, Z-Phe-Arg-AMC 8 μM, pH 5.5, 15 min preincubation; read-out: hCat F IP
T1 sequence (Q9UBX1 271-484): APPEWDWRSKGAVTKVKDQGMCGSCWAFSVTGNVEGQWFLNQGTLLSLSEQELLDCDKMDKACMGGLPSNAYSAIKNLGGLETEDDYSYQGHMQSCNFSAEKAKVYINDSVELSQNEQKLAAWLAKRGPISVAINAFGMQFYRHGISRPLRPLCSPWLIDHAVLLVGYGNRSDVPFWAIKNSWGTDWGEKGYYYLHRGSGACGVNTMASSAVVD
Outline: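 Human cathepsin F (10 nM) in 50 mM MES pH 5.5, 2.5 mM EDTA, 2.5 mM DTT, 10% DMSO was preincubated 15 min at RT with compounds from a ⅓ DMSO dilution series (500–0.025 μM stocks). Z-Phe-Arg-AMC was added (8 μM as added), and AMC release was read by fluorescence (360/460 nm) for 20 min. Percent inhibition was fitted to a dose-response model.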

human cathepsin K = human cathepsin K (UniProt P43236); assay: Cathepsin K Assay (hrbCat K); assay type: biochemical; details: human cathepsin K 0.4 nM, Z-Leu-Arg-AMC 8 μM, pH 5.5, 15 min preincubation; read-out: hrbCat K IP
Outline: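 Human cathepsin K (0.4 nM) in pH 5.5 MES buffer with EDTA, DTT and 10% DMSO was preincubated 15 min at room temperature with compound from a ⅓ dilution series (500-0.025 μM DMSO stocks). Z-Leu-Arg-AMC (8 μM) was then added, and AMC release was followed fluorometrically (Ex 360/Em 460 nm) for 30 min; inhibition was fitted to a dose-response model.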

Row | IC50 (human cathepsin F) | IC50 (human cathepsin K) | Compound
1 | 1860 nM | 2.41 nM | N#CC1(NC(=O)[C@@H]2C[C@@H](F)CC[C@H]2c2oc(C(F)(F)C(F)(F)F)nc2-c2ccc(N3CCS(=O)(=O)CC3)cc2)CC1 [Example 42, (1R,2R,5S)-N-(1-cyanocyclopropyl)-2-(4-(4-(1,1-dioxidothiomorpholino)phenyl)-2-(perfluoroethyl)oxazol-5-yl)-5-fluorocyclohexane-carboxamide]
2 | 1650 nM | 15.7 nM | CC(C)(C#N)NC(=O)[C@@H]1CCCC[C@H]1c1oc(-c2ccc(F)cc2F)nc1-c1ccc(N2CCS(=O)(=O)CC2)cc1 [Example 43, (1R,2R)-N-(2-cyanopropan-2-yl)-2-(2-(2,4-difluorophenyl)-4-(4-(1,1-dioxidothiomorpholino)phenyl)oxazol-5-yl)cyclohexanecarboxamide]
3 | 229 nM | 0.67 nM | N#CCNC(=O)[C@@H]1CCCC[C@H]1c1oc(-c2ccc(F)cc2F)nc1-c1ccc(N2CCS(=O)(=O)CC2)cc1 [Example 44, (1R,2R)-N-(cyanomethyl)-2-(2-(2,4-difluorophenyl)-4-(4-(1,1-dioxidothiomorpholino)phenyl)oxazol-5-yl)cyclohexanecarboxamide]
4 | 176 nM | 7.4 nM | CN(C(=O)OC(C)(C)C)c1ccc(-c2nc(-c3ccc(F)cc3)oc2[C@@H]2CCCC[C@H]2C(=O)NC2(C#N)CC2)cc1 [Example 48, tert-butyl (4-(5-((1R,2R)-2-((1-cyanocyclopropyl)carbamoyl)cyclohexyl)-2-(4-fluorophenyl)oxazol-4-yl)phenyl)(methyl)carbamate]
5 | 1340 nM | 4.01 nM | CC(C)(C)OC(=O)Nc1ccc(-c2nc(-c3ccc(F)cc3)oc2[C@@H]2CCCC[C@H]2C(=O)NC2(C#N)CC2)cc1 [Example 49, tert-butyl (4-(5-((1R,2R)-2-((1-cyanocyclopropyl)carbamoyl)cyclohexyl)-2-(4-fluorophenyl)oxazol-4-yl)phenyl)carbamate]
6 | 698 nM | 1.6 nM | N#CC1(NC(=O)[C@@H]2CCCC[C@H]2c2oc(Cc3ccccc3)nc2-c2ccc(N3CCS(=O)(=O)CC3)cc2)CC1 [Example 50, (1R,2R)-2-(2-benzyl-4-(4-(1,1-dioxidothiomorpholino)phenyl)oxazol-5-yl)-N-(1-cyanocyclopropyl) cyclohexanecarboxamide]
7 | 400 nM | 1.69 nM | N#CC1(NC(=O)[C@@H]2CCCC[C@H]2c2oc(CC3CCCCC3)nc2-c2ccc(N3CCS(=O)(=O)CC3)cc2)CC1 [Example 51, (1R,2R)-N-(1-cyanocyclopropyl)-2-(2-(cyclohexylmethyl)-4-(4-(1,1-dioxidothiomorpholino)phenyl)oxazol-5-yl)cyclohcxanecarboxamide]
8 | 820 nM | 2.51 nM | CC1(c2nc(-c3ccc(N4CCS(=O)(=O)CC4)cc3)c([C@@H]3CCCC[C@H]3C(=O)NC3(C#N)CC3)o2)CCC(F)(F)CC1 [Example 52, (1R,2R)-N-(1-cyanocyclopropyl)-2-(2-(4,4-difluoro-1-methylcyclohexyl)-4-(4-(1,1-dioxidothiomorpholino)phenyl)oxazol-5-yl)cyclohexanecarboxamide]
9 | 582 nM | 1.93 nM | CC1(c2nc(-c3ccc(N4CCS(=O)(=O)CC4)cc3)c([C@@H]3CCCC[C@H]3C(=O)NC3(C#N)CC3)o2)CC[Si](C)(C)CC1 [Example 53, (1R,2R)-N-(1-cyanocyclopropyl)-2-(4-(4-(1,1-dioxidothiomorpholino)phenyl)-2-(1,1,4-trimethylsilinan-4-yl)oxazol-5-yl)cyclohexanecarboxamide]
10 | 5310 nM | 2.31 nM | Cc1nc(-c2ccc(N3CCS(=O)(=O)CC3)cc2)c([C@@H]2CCCC[C@H]2C(=O)NC2(C#N)CC2)s1 [Example 54, (1R,2R)-N-(1-cyanocyclopropyl)-2-(4-(4-(1,1-dioxidothiomorpholino)phenyl)-2-methylthiazol-5-yl)cyclohexanecarboxamide]
11 | 5480 nM | 4.15 nM | Cc1nc(-c2ccc(N3CC(S(C)(=O)=O)C3)cc2)c([C@@H]2CCCC[C@H]2C(=O)NC2(C#N)CC2)s1 [Example 55, (1R,2R)-N-(1-cyanocyclopropyl)-2-(2-mcthyl-4-(4-(3-(methylsulfonyl)azetidin-1-yl)phenyl)thiazol-5-yl)cyclohexanecarboxamide]
12 | 722 nM | 3.19 nM | N#CC1(NC(=O)[C@@H]2CCCC[C@H]2c2sc(-c3ccc(F)cc3)nc2-c2ccc(N3CCS(=O)(=O)CC3)cc2)CC1 [Example 56, (1R,2R)-N-(1-cyanocyclopropyl)-2-(4-(4-(1,1-dioxidothiomorpholino)phenyl)-2-(4-fluorophenyl)thiazol-5-yl)cyclohexanecarboxamide]
13 | 93 nM | 0.58 nM | N#CC1(NC(=O)[C@@H]2CC(F)(F)CC[C@H]2c2sc(CC(F)(F)F)nc2-c2ccc(N3CCS(=O)(=O)CC3)cc2)CC1 [Example 57, (1R,2R)-N-(1-cyanocyclopropyl)-2-(4-(4-(1,1-dioxidothiomorpholino)phenyl)-2-(2,2,2-trifluoroethyl)thiazol-5-yl)-5,5-difluorocyclohexane-carboxamide]
14 | 72 nM | 0.67 nM | CC(C)(C)c1nc(-c2ccc(N3CCS(=O)(=O)CC3)cc2)c([C@@H]2CCC(F)(F)C[C@H]2C(=O)NC2(C#N)CC2)s1 [Example 58, (1R,2R)-2-(2-(tert-butyl)-4-(4-(1,1-dioxidothiomorpholino)phenyl)thiazol-5-yl)-N-(1-cyanocyclopropyl)-5,5-difluorocyclohexane-carboxamide]
15 | 389 nM | 0.51 nM | Cc1nc(-c2ccc(N3CCS(=O)(=O)CC3)cc2)c([C@@H]2CCC(F)(F)C[C@H]2C(=O)NC2(C#N)CC2)s1 [Example 59, (1R,2R)-N-(1-cyanocyclopropyl)-2-(4-(4-(1,1-dioxidothiomorpholino)phenyl)-2-methylthiazol-5-yl)-5,5-difluorocyclohexane-carboxamide]
16 | 3290 nM | 4.37 nM | N#CC1(NC(=O)[C@@H]2CCCC[C@H]2c2sc(C(F)(F)F)nc2-c2ccc(N3CCS(=O)(=O)CC3)cc2)CC1 [Example 60, (1R,2R)-N-(1-cyanocyclopropyl)-2-(4-(4-(1,1-dioxidothiomorpholino)phenyl)-2-(trifluoromethyl)thiazol-5-yl)cyclohexanecarboxamide]
17 | 511 nM | 1.36 nM | N#CC1(NC(=O)[C@@H]2CCCC[C@H]2c2oc(-c3ccc(OC(F)(F)F)cc3)nc2-c2ccc(N3CCS(=O)(=O)CC3)cc2)CC1 [Example 61, (1R,2R)-N-(1-cyanocyclopropyl)-2-(4-(4-(1,1-dioxidothiomorpholino)phenyl)-2-(4-(trifluoromethoxy)phenyl)oxazol-5-yl)cyclohexanecarboxamide]
18 | 492 nM | 0.92 nM | N#CC1(NC(=O)[C@@H]2CCCC[C@H]2c2oc(-c3cccc(F)c3)nc2-c2ccc(N3CCS(=O)(=O)CC3)cc2)CC1 [Example 62, (1R,2R)-N-(1-cyanocyclopropyl)-2-(4-(4-(1,1-dioxidothiomorpholino)phenyl)-2-(3-fluorophenyl)oxazol-5-yl)cyclohexanecarboxamide]
19 | 639 nM | 1.23 nM | N#CC1(NC(=O)[C@@H]2CCCC[C@H]2c2oc(-c3ccccc3OC(F)(F)F)nc2-c2ccc(N3CCS(=O)(=O)CC3)cc2)CC1 [Example 63, (1R,2R)-N-(1-cyanocyclopropyl)-2-(4-(4-(1,1-dioxidothiomorpholino)phenyl)-2-(2-(trifluoromethoxy)phenyl)oxazol-5-yl)cyclohcxanecarboxamide]
